In ChEMBL document CHEMBL6114933, “Discovery of 3-acyl-2-anilino-1,4-dihydroquinolin-4-one derivatives as potential inhibitors of methicillin-resistant Staphylococcus aureus” (Bioorg Med Chem Lett, 2025):
Values after ≈ are worked out from the molar mass of the structure shown.

Legend:
[1] = Cytotoxicity against human HepG2 cells; format: toxicity, cell-based
[2] = AUC (0 to infinity) in rat at 2 mg/kg, iv; format: ADME, organism-based; conditions: in vivo
[3] = Cytotoxicity against African green monkey Vero cells; format: toxicity, cell-based, Chlorocebus sabaeus
[4] = Cmax in rat at 5 mg/kg, po or 2 mg/kg, iv; format: ADME, organism-based; conditions: in vivo
Staphylococcus aureus [5] = experiment: Ex vivo antibacterial activity against methicillin-resistant Staphylococcus aureus assessed as inhibition of bacterial growth by cell infection model; format: functional
Staphylococcus aureus [6] = experiment: Antibacterial activity against drug-sensitive Staphylococcus aureus ATCC25923 assessed as inhibition of bacterial growth; format: functional
[7] = AUC(0 to 24 hrs) in rat at 2 mg/kg, iv; format: ADME, organism-based; conditions: in vivo
[8] = Clearance in rat at 2 mg/kg, iv; format: ADME, organism-based; conditions: in vivo
[9] = target: Voltage-gated inwardly rectifying potassium channel KCNH2 (Homo sapiens, UniProt Q12809); experiment: Inhibition of hERG by binding assay; format: toxicity
Staphylococcus aureus [10] = experiment: Antibacterial activity against drug-resistant Staphylococcus aureus USA300 JE2 assessed as inhibition of bacterial growth; format: functional
[11] = Oral bioavailability in rat at 5 mg/kg; format: ADME, organism-based; conditions: in vivo
[12] = Cytotoxicity against mouse NIH3T3 cells; format: toxicity, cell-based
[13] = Cytotoxicity against mouse L929 cells; format: toxicity, cell-based
[14] = Metabolic stability in mouse liver microsomes parent compound remaining measured after 30 mins; format: ADME, Microsome; conditions: read-out: Stability
[15] = Cytotoxicity against CHO-K1 cells; format: toxicity, cell-based, Cricetulus griseus; conditions: Chinese hamster
[16] = Half life in rat at 2 mg/kg, iv; format: ADME, organism-based; conditions: in vivo
[17] = Cytotoxicity against HFL1 cells; format: toxicity, cell-based; conditions: human
[18] = Metabolic stability in human liver microsomes assessed as parent compound remaining measured after 30 mins; format: ADME, Microsome; conditions: read-out: Stability
[19] = Metabolic stability in rat liver microsomes assessed as parent compound remaining measured after 30 mins; format: ADME, Microsome; conditions: read-out: Stability

Voltage-gated inwardly rectifying potassium channel KCNH2, sequence (Q12809 whole entry): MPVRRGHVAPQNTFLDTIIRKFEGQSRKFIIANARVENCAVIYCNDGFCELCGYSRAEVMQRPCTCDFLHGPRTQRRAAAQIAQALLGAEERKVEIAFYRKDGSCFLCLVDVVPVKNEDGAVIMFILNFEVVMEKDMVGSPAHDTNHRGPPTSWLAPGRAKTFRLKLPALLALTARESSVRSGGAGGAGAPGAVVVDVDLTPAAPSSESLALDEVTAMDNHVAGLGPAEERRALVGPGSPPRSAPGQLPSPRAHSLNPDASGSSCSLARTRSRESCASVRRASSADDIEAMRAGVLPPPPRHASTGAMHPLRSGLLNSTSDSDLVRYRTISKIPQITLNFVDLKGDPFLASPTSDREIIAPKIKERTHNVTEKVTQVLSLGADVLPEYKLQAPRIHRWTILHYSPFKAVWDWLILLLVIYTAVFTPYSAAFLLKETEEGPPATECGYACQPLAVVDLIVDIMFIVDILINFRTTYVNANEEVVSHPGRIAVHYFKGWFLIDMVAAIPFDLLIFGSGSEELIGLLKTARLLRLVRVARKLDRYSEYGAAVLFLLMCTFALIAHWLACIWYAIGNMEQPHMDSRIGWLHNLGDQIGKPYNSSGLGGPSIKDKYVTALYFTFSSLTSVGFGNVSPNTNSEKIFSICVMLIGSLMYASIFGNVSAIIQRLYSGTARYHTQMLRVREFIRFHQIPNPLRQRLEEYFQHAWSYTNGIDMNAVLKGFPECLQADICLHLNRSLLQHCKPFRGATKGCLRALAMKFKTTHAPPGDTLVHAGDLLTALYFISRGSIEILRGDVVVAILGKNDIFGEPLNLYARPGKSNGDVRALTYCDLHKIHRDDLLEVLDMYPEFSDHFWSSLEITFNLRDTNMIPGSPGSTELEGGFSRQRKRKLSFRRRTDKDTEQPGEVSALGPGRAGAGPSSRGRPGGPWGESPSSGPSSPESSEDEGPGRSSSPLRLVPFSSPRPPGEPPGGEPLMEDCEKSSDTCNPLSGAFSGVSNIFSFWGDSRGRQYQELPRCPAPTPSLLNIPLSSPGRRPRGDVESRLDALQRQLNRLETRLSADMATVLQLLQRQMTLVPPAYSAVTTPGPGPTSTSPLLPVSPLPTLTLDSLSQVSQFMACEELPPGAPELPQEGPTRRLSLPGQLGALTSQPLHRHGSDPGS

`CC(C)C(=O)c1c(Nc2ccc(F)c(F)c2F)[nH]c2c(F)cc(F)cc2c1=O` showed an IC50 [1] of 63.7 µM, an AUC [2] of 28.9 uM.hr/ml and an IC50 [3] of 86.1 µM. For the same molecule, the Cmax [4] was 2.32 uM/ml, the MIC50 (Staphylococcus aureus [5]) was 0.71 µM (≈ 0.281 µg/mL) and the MIC50 (Staphylococcus aureus [6]) was 0.18 µM (≈ 0.0713 µg/mL). For the same molecule, the AUC [7] was 28.3 uM.hr/ml, the CL ([8]; iv, 2 mg/kg) was 1.2 mL/min/kg and the IC50 [9] was > 100 µM. The MIC50 (Staphylococcus aureus [10]) was 0.2 µM (≈ 0.0793 µg/mL) and the bioavailability [11] was > 55.8%.
With `CCN(CC)CCCC(C)Nc1[nH]c2c(F)cc(F)cc2c(=O)c1C(C)=O` (centres undefined) the MIC50 (Staphylococcus aureus [6]) was > 20 µM and the MIC50 (Staphylococcus aureus [10]) was > 20 µM.
Work on `CC(=O)c1c(Nc2ccc(Cl)cc2Cl)[nH]c2c(Cl)cc(Cl)c(Cl)c2c1=O` yielded an MIC50 (Staphylococcus aureus [5]) of 34.8 µM (≈ 15.7 µg/mL), an MIC50 (Staphylococcus aureus [6]) of 0.28 µM (≈ 0.126 µg/mL) and an MIC50 (Staphylococcus aureus [10]) of 0.27 µM (≈ 0.122 µg/mL).
Work on `CC(C)C(=O)c1c(Nc2ccc(F)cc2F)[nH]c2c(F)cc(F)cc2c1=O` yielded an MIC50 (Staphylococcus aureus [5]) of 10 µM (≈ 3.79 µg/mL), an MIC50 (Staphylococcus aureus [6]) of 1.36 µM (≈ 0.515 µg/mL) and an MIC50 (Staphylococcus aureus [10]) of 1.27 µM (≈ 0.48 µg/mL).
Work on `CC(=O)c1c(Nc2ccc(F)cc2F)[nH]c2c(F)cc(F)cc2c1=O` yielded an MIC50 (Staphylococcus aureus [5]) of 9.48 µM (≈ 3.32 µg/mL), an MIC50 (Staphylococcus aureus [6]) of 4.41 µM (≈ 1.54 µg/mL) and an MIC50 (Staphylococcus aureus [10]) of 3.84 µM (≈ 1.35 µg/mL).
For `CC(C)C(=O)c1c(Nc2ccc(Cl)cc2Cl)[nH]c2c(F)cc(F)cc2c1=O`, the IC50 [1] was 39 µM, the MIC50 (Staphylococcus aureus [5]) was 1.45 µM (≈ 0.596 µg/mL) and the MIC50 (Staphylococcus aureus [6]) was 0.2 µM (≈ 0.0822 µg/mL). The MIC50 (Staphylococcus aureus [10]) was 0.19 µM (≈ 0.0781 µg/mL).
`CC(=O)c1c(Nc2ccc(Cl)cc2Cl)[nH]c2c(F)cc(F)cc2c1=O` showed an MIC50 (Staphylococcus aureus [5]) of 10.1 µM (≈ 3.88 µg/mL), an MIC50 (Staphylococcus aureus [6]) of 0.41 µM (≈ 0.157 µg/mL) and an MIC50 (Staphylococcus aureus [10]) of 0.39 µM (≈ 0.149 µg/mL).
For `COc1ccc(CNc2[nH]c3c(F)cc(F)cc3c(=O)c2C(C)=O)cc1`, the MIC50 (Staphylococcus aureus [6]) was > 20 µM and the MIC50 (Staphylococcus aureus [10]) was > 20 µM.
`CC(=O)c1c(Nc2ccc(F)c(F)c2F)[nH]c2c(F)cc(F)cc2c1=O` showed an MIC50 (Staphylococcus aureus [5]) of 6.79 µM (≈ 2.5 µg/mL), an MIC50 (Staphylococcus aureus [6]) of 1.11 µM (≈ 0.409 µg/mL) and an MIC50 (Staphylococcus aureus [10]) of 0.95 µM (≈ 0.35 µg/mL).
In the case of `CC(C)C(=O)c1c(Nc2ccc(F)c(F)c2F)[nH]c2c(Cl)cc(Cl)c(Cl)c2c1=O`, the IC50 [1] is reported as 31.2 µM, the MIC50 (Staphylococcus aureus [5]) is reported as 0.57 µM (≈ 0.264 µg/mL) and the MIC50 (Staphylococcus aureus [6]) is reported as 0.04 µM (≈ 0.0185 µg/mL). It also gave an MIC50 (Staphylococcus aureus [10]) of 0.05 µM (≈ 0.0232 µg/mL).
With `CC(C)C(=O)c1c(Nc2ccc(F)cc2F)[nH]c2c(Cl)cc(Cl)c(Cl)c2c1=O` the IC50 [1] was > 256 µM, the IC50 [12] was 67.5 µM and the IC50 [13] was > 100 µM. For the same molecule, the AUC [2] was 175.71 uM.hr/ml, the remaining at 0.5 h [14] was 68.1% and the IC50 [15] was 4.9 µM. The half-life [16] was 25.6 h, the IC50 [17] was 10.6 µM and the IC50 [3] was 61.3 µM. The remaining at 0.5 h [18] was 95.6%, the Cmax [4] was 5.91 uM/ml and the MIC50 (Staphylococcus aureus [5]) was 3.9 µM (≈ 1.74 µg/mL). It also gave an MIC50 (Staphylococcus aureus [6]) of 0.05 µM (≈ 0.0223 µg/mL), an AUC [7] of 31.97 uM.hr/ml and a clearance [8] of 0.5 mL/min/kg. For the same molecule, the IC50 [9] was 60 µM, the MIC50 (Staphylococcus aureus [10]) was 0.06 µM (≈ 0.0267 µg/mL) and the remaining at 0.5 h [19] was 81.9%. For the same molecule, the bioavailability [11] was > 99.9%.
For `CC(=O)c1c(Nc2cc(F)cc(F)c2)[nH]c2c(F)cc(F)cc2c1=O`, the MIC50 (Staphylococcus aureus [6]) was > 20 µM and the MIC50 (Staphylococcus aureus [10]) was > 20 µM.
With `CC(=O)c1c(N2CCOCC2)[nH]c2c(F)cc(F)cc2c1=O` the MIC50 (Staphylococcus aureus [6]) was > 20 µM and the MIC50 (Staphylococcus aureus [10]) was > 20 µM.
With `CN[C@H](CC(C)C)C(=O)N[C@H]1C(=O)N[C@@H](CC(N)=O)C(=O)N[C@H]2C(=O)N[C@H]3C(=O)N[C@H](C(=O)N[C@H](C(=O)O)c4cc(O)cc(O)c4-c4cc3ccc4O)[C@H](O)c3ccc(c(Cl)c3)Oc3cc2cc(c3O[C@@H]2O[C@H](CO)[C@@H](O)[C@H](O)[C@H]2O[C@H]2C[C@](C)(N)[C@H](O)[C@H](C)O2)Oc2ccc(cc2Cl)[C@H]1O` [VANCOMYCIN] the MIC50 (Staphylococcus aureus [6]) was 1.97 µM (≈ 2.86 µg/mL).
`CC(=O)c1c(Nc2ccc(Cl)cc2Cl)[nH]c2c(Cl)ccc(C(F)(F)F)c2c1=O` showed an MIC50 (Staphylococcus aureus [5]) of 15.2 µM (≈ 6.83 µg/mL), an MIC50 (Staphylococcus aureus [6]) of 0.44 µM (≈ 0.198 µg/mL) and an MIC50 (Staphylococcus aureus [10]) of 0.41 µM (≈ 0.184 µg/mL).
Molecule `CC[C@H]1OC(=O)[C@H](C)[C@@H](O[C@H]2C[C@@](C)(OC)[C@@H](O)[C@H](C)O2)[C@H](C)[C@@H](O[C@@H]2O[C@H](C)C[C@H](N(C)C)[C@H]2O)[C@](C)(O)C[C@@H](C)C(=O)[C@H](C)[C@@H](O)[C@]1(C)O` [ERYTHROMYCIN] has an MIC50 (Staphylococcus aureus [6]) of 0.74 µM (≈ 0.543 µg/mL).
For `CC(=O)c1c(NCc2ccc(F)cc2)[nH]c2c(F)cc(F)cc2c1=O`, the MIC50 (Staphylococcus aureus [6]) was > 20 µM and the MIC50 (Staphylococcus aureus [10]) was > 20 µM.
With `CC(=O)c1c(NCc2ccc(F)cc2F)[nH]c2c(F)cc(F)cc2c1=O` the MIC50 (Staphylococcus aureus [6]) was > 20 µM and the MIC50 (Staphylococcus aureus [10]) was > 20 µM.
With `COc1ccc(Nc2[nH]c3c(F)cc(F)cc3c(=O)c2C(C)=O)cc1` the MIC50 (Staphylococcus aureus [6]) was > 20 µM and the MIC50 (Staphylococcus aureus [10]) was > 20 µM.
For `CC(=O)c1c(N2CCCCC2)[nH]c2c(F)cc(F)cc2c1=O`, the MIC50 (Staphylococcus aureus [6]) was > 20 µM and the MIC50 (Staphylococcus aureus [10]) was > 20 µM.
